Target: T1, Axl (Homo sapiens, UniProt P30530)
T1 sequence (P30530 26-894): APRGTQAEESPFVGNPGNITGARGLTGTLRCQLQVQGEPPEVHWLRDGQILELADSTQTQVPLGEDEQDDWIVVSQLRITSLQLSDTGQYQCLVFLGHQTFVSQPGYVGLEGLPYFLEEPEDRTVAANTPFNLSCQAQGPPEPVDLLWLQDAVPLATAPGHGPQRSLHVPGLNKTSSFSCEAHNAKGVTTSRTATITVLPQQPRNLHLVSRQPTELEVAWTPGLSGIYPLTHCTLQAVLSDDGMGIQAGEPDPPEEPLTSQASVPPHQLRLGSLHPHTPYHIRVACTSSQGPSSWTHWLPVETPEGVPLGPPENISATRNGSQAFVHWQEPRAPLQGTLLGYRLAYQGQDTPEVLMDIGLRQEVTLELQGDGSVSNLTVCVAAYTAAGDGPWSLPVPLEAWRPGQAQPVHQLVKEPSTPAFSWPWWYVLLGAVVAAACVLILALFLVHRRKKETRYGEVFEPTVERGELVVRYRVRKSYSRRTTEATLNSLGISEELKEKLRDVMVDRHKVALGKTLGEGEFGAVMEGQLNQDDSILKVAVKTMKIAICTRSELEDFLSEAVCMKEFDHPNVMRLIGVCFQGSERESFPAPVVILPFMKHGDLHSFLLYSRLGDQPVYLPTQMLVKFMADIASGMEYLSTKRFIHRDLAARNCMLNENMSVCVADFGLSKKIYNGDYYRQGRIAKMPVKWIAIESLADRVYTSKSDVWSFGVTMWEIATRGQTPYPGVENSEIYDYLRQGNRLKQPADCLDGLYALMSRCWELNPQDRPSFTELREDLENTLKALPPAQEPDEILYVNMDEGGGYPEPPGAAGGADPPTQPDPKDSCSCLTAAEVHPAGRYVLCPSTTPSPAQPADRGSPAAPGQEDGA
Assay: Axl NanoBRET intracellular kinase assay (intracellular binding, K-5 tracer displacement)
Parameters: host or cells: HEK-293
Settings: HEK-293 cells transfected with Axl-NanoLuc, 0.35 μM K-5 NanoBRET tracer; read-out: Cell Binding AXL
Summary of the method: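 HEK-293 cells transiently transfected with Axl-NanoLuc, 8K cells/well at 0.5% DMSO, pre-incubated 1 h with compound at 37 °C, then 2 h with 0.35 μM K-5 tracer. BRET ratio 610/450 nm; IC50 by 4-parameter fit of tracer displacement.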

IC50: < 0.1 µM
SMILES: Cc1cccnc1-c1ccc(-c2c[nH]c3ncc(-c4ccc5c(c4)CC[C@@H](N4C6COCC4C6)CC5)cc23)cc1 [Example 1, 6-[(7S)-2-{3-[4-(3-Methylpyridin-2-yl)phenyl]-1H-pyrrolo[2,3-b]pyridin-5-yl}-6,7,8,9-tetrahydro-5H-benzo[7]annulen-7-yl]-3-oxa-6-azabicyclo[3.1.1]heptane]

— patent US12195482B1 (Arcus Biosciences, Inc., priority 2022, dated 2025)
